Data as given in patent publication US10550105B2 (Ribon Therapeutics Inc., priority 2018, dated 2020).

Molecular target: PARP7 (Homo sapiens (Human), UniProt Q7Z3E1)
Assay: Enzymatic assay for inhibition of PARP7: TR-FRET displacement of biotinylated Probe A from the TIPARP active site
Type: binding
Conditions: Table A-1
Method in brief: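 Read-out: 665/615 nm emission ratio (ex 320 nm, 90 μs delay) indexing bound TIPARP–Probe A. Final incubation 30 min, 25° C; compounds in dose response. Curve fit of % inhibition vs concentration; Hill slope floating or fixed at 1 (3-parameter).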

Sequence of PARP7 (Q7Z3E1 whole entry): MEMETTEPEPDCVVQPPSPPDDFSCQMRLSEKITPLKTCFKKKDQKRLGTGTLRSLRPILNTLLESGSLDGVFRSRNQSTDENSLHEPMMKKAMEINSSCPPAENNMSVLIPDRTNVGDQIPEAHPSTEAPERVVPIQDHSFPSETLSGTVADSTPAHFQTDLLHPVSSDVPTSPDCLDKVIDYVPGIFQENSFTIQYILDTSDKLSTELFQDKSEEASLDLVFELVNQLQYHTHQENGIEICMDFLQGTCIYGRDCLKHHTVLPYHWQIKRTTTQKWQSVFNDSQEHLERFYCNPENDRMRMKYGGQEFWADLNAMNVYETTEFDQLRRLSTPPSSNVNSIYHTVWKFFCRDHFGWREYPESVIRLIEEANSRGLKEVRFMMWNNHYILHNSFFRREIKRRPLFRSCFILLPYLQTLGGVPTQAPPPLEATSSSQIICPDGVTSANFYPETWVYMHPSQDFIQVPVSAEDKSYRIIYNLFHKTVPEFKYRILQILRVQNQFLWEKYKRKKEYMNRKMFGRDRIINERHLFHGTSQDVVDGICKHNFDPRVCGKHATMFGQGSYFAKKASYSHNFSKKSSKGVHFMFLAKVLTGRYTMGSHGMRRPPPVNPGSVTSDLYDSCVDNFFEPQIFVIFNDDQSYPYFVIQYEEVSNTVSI

IC50 | SMILES
100 to 1000 nM | CN1CCN(C(=O)CCOC[C@@H]2c3ccccc3CN2c2cn[nH]c(=O)c2C(F)(F)F)CC1 [Example 421, (S)-5-(1-((3-(4-Methylpiperazin-1-yl)-3-oxopropoxy)methyl)isoindolin-2-yl)-4-(trifluoromethyl)pyridazin-3(2H)-one]
≥ 1000 nM | CN1CCN(C(=O)CCOC[C@H]2c3ccccc3CN2c2cn[nH]c(=O)c2C(F)(F)F)CC1 [Example 422, (R)-5-(1-((3-(4-Methylpiperazin-1-yl)-3-oxopropoxy)methyl)isoindolin-2-yl)-4-(trifluoromethyl)pyridazin-3(2H)-one]
< 100 nM | N#CCCC(=O)N1CCN(C(=O)CCOC[C@@H]2c3ccccc3CN2c2cn[nH]c(=O)c2C(F)(F)F)CC1 [Example 423, (S)-4-Oxo-4-(4-(3-((2-(6-oxo-5-(trifluoromethyl)-1,6-dihydropyridazin-4-yl)isoindolin-1-yl)methoxy)propanoyl)piperazin-1-yl)butanenitrile]
≥ 1000 nM | N#CCCC(=O)N1CCN(C(=O)CCOC[C@H]2c3ccccc3CN2c2cn[nH]c(=O)c2C(F)(F)F)CC1 [Example 424, (R)-4-Oxo-4-(4-(3-((2-(6-oxo-5-(trifluoromethyl)-1,6-dihydropyridazin-4-yl)isoindolin-1-yl)methoxy)propanoyl)piperazin-1-yl)butanenitrile]
≥ 1000 nM | N#Cc1ccc(N2CCN(C(=O)CCNC[C@H]3c4ccccc4CN3c3cn[nH]c(=O)c3Cl)CC2)nc1 [Example 425, (R)-6-(4-(3-(((2-(5-Chloro-6-oxo-1,6-dihydropyridazin-4-yl)isoindolin-1-yl)methyl)amino)propanoyl)piperazin-1-yl)nicotinonitrile]
< 100 nM | N#Cc1ccc(N2CCN(C(=O)CCNC[C@@H]3c4ccccc4CN3c3cn[nH]c(=O)c3Cl)CC2)nc1 [Example 426, (S)-6-(4-(3-(((2-(5-Chloro-6-oxo-1,6-dihydropyridazin-4-yl)isoindolin-1-yl)methyl)amino)propanoyl)piperazin-1-yl)nicotinonitrile]
< 100 nM | CN(CCC(=O)N1CCN(c2ccc(C#N)cn2)CC1)C[C@@H]1c2ccccc2CN1c1cn[nH]c(=O)c1C(F)(F)F [Example 427, (S)-6-(4-(3-(Methyl((2-(6-oxo-5-(trifluoromethyl)-1,6-dihydropyridazin-4-yl)isoindolin-1-yl)methyl)amino)propanoyl)piperazin-1-yl)nicotinonitrile]
100 to 1000 nM | CN(CCC(=O)N1CCN(c2ccc(C#N)cn2)CC1)C[C@H]1c2ccccc2CN1c1cn[nH]c(=O)c1C(F)(F)F [Example 428, (R)-6-(4-(3-(Methyl((2-(6-oxo-5-(trifluoromethyl)-1,6-dihydropyridazin-4-yl)isoindolin-1-yl)methyl)amino)propanoyl)piperazin-1-yl)nicotinonitrile]
< 100 nM | CN(CCC(=O)N1CCN(c2ccc(C#N)cn2)CC1)C[C@@H]1c2ccccc2CN1c1cn[nH]c(=O)c1Cl [Example 429, (S)-6-(4-(3-(((2-(5-Chloro-6-oxo-1,6-dihydropyridazin-4-yl)isoindolin-1-yl)methyl)(methyl)amino)propanoyl)piperazin-1-yl)nicotinonitrile]
100 to 1000 nM | CN(CCC(=O)N1CCN(c2ccc(C#N)cn2)CC1)C[C@H]1c2ccccc2CN1c1cn[nH]c(=O)c1Cl [Example 430, (R)-6-(4-(3-(((2-(5-Chloro-6-oxo-1,6-dihydropyridazin-4-yl)isoindolin-1-yl)methyl)(methyl)amino)propanoyl)piperazin-1-yl)nicotinonitrile]
< 100 nM | N#Cc1ccc(N2CCN(C(=O)CCOC[C@@H]3c4ncccc4CN3c3cn[nH]c(=O)c3Cl)CC2)nc1 [Example 431, (S)-6-(4-(3-((6-(5-Chloro-6-oxo-1,6-dihydropyridazin-4-yl)-6,7-dihydro-5H-pyrrolo[3,4-b]pyridin-7-yl)methoxy)propanoyl)piperazin-1-yl)nicotinonitrile]
100 to 1000 nM | N#Cc1ccc(N2CCN(C(=O)CCOC[C@H]3c4ncccc4CN3c3cn[nH]c(=O)c3Cl)CC2)nc1 [Example 432, (R)-6-(4-(3-((6-(5-Chloro-6-oxo-1,6-dihydropyridazin-4-yl)-6,7-dihydro-5H-pyrrolo[3,4-b]pyridin-7-yl)methoxy)propanoyl)piperazin-1-yl)nicotinonitrile]
< 100 nM | O=C(CCNC[C@@H]1c2ccccc2CN1c1cn[nH]c(=O)c1C(F)(F)F)N1CCN(c2ncc(C(F)(F)F)cn2)CC1 [Example 433, (S)-5-(1-(((3-Oxo-3-(4-(5-(trifluoromethyl)pyrimidin-2-yl)piperazin-1-yl)propyl)amino)methyl)isoindolin-2-yl)-4-(trifluoromethyl)pyridazin-3(2H)-one]
≥ 1000 nM | O=C(CCNC[C@H]1c2ccccc2CN1c1cn[nH]c(=O)c1C(F)(F)F)N1CCN(c2ncc(C(F)(F)F)cn2)CC1 [Example 434, (R)-5-(1-(((3-Oxo-3-(4-(5-(trifluoromethyl)pyrimidin-2-yl)piperazin-1-yl)propyl)amino)methyl)isoindolin-2-yl)-4-(trifluoromethyl)pyridazin-3(2H)-one]
< 100 nM | N#Cc1ccc(N2CCN(C(=O)c3cccc(OCC4CCCN4c4cn[nH]c(=O)c4C(F)(F)F)c3)CC2)nc1 (stereo not drawn) [Example 435, 6-(4-(3-((1-(6-Oxo-5-(trifluoromethyl)-1,6-dihydropyridazin-4-yl)pyrrolidin-2-yl)methoxy)benzoyl)piperazin-1-yl)nicotinonitrile]
100 to 1000 nM | O=C(c1cccc(OCC2CCCN2c2cn[nH]c(=O)c2C(F)(F)F)c1)N1CCn2c(nnc2C(F)(F)F)C1 (stereo not drawn) [Example 436, 4-(Trifluoromethyl)-5-(2-((3-(3-(trifluoromethyl)-5,6,7,8-tetrahydro-[1,2,4]triazolo[4,3-a]pyrazine-7-carbonyl)phenoxy)methyl)pyrrolidin-1-yl)pyridazin-3(2H)-one]
< 100 nM | N#Cc1cnc(N2CCN(C(=O)c3cccc(OCC4CCCN4c4cn[nH]c(=O)c4C(F)(F)F)c3)CC2)nc1 (stereo not drawn) [Example 437, 2-(4-(3-((1-(6-Oxo-5-(trifluoromethyl)-1,6-dihydropyridazin-4-yl)pyrrolidin-2-yl)methoxy)benzoyl)piperazin-1-yl)pyrimidine-5-carbonitrile]
≥ 1000 nM | N#Cc1cnc(N2CCN(C(=O)c3cccc(OC[C@H]4CCCN4c4cn[nH]c(=O)c4C(F)(F)F)c3)CC2)nc1 [Example 438, (R)-2-(4-(3-((1-(6-Oxo-5-(trifluoromethyl)-1,6-dihydropyridazin-4-yl)pyrrolidin-2-yl)methoxy)benzoyl)piperazin-1-yl)pyrimidine-5-carbonitrile]
< 100 nM | N#Cc1cnc(N2CCN(C(=O)c3cccc(OC[C@@H]4CCCN4c4cn[nH]c(=O)c4C(F)(F)F)c3)CC2)nc1 [Example 439, (S)-2-(4-(3-((1-(6-Oxo-5-(trifluoromethyl)-1,6-dihydropyridazin-4-yl)pyrrolidin-2-yl)methoxy)benzoyl)piperazin-1-yl)pyrimidine-5-carbonitrile]
< 100 nM | O=C(c1cccc(OC[C@@H]2CCCN2c2cn[nH]c(=O)c2C(F)(F)F)c1)N1CCN(c2ccc(C(F)(F)F)cn2)CC1 [Example 440, (S)-4-(Trifluoromethyl)-5-(2-((3-(4-(5-(trifluoromethyl)pyridin-2-yl)piperazine-1-carbonyl)phenoxy)methyl)pyrrolidin-1-yl)pyridazin-3(2H)-one]
< 100 nM | O=C(c1cccc(OC[C@@H]2CCCN2c2cn[nH]c(=O)c2C(F)(F)F)c1)N1CCN(c2ncc(C(F)(F)F)cn2)CC1 [Example 441, (S)-4-(Trifluoromethyl)-5-(2-((3-(4-(5-(trifluoromethyl)pyrimidin-2-yl)piperazine-1-carbonyl)phenoxy)methyl)pyrrolidin-1-yl)pyridazin-3(2H)-one]
< 100 nM | N#Cc1ccc(N2CCN(C(=O)c3cncc(OCC4CCCN4c4cn[nH]c(=O)c4C(F)(F)F)c3)CC2)nc1 (stereo not drawn) [Example 442, 6-(4-(5-((1-(6-Oxo-5-(trifluoromethyl)-1,6-dihydropyridazin-4-yl)pyrrolidin-2-yl)methoxy)nicotinoyl)piperazin-1-yl)nicotinonitrile]
< 100 nM | N#Cc1cnc(N2CCN(C(=O)c3cccc(OC[C@@H]4CCCN4c4cn[nH]c(=O)c4C(F)(F)F)c3)CC2)cn1 [Example 443, (S)-5-(4-(3-((1-(6-Oxo-5-(trifluoromethyl)-1,6-dihydropyridazin-4-yl)pyrrolidin-2-yl)methoxy)benzoyl)piperazin-1-yl)pyrazine-2-carbonitrile]
< 100 nM | N#Cc1cnc(N2CCN(C(=O)c3cncc(OC[C@@H]4CCCN4c4cn[nH]c(=O)c4C(F)(F)F)c3)CC2)cn1 [Example 444, (S)-5-(4-(5-((1-(6-Oxo-5-(trifluoromethyl)-1,6-dihydropyridazin-4-yl)pyrrolidin-2-yl)methoxy)nicotinoyl)piperazin-1-yl)pyrazine-2-carbonitrile]
< 100 nM | O=C(c1cccc(OC[C@@H]2CCCN2c2cn[nH]c(=O)c2C(F)(F)F)c1)N1CCN(c2ncccn2)CC1 [Example 445, (S)-5-(2-((3-(4-(Pyrimidin-2-yl)piperazine-1-carbonyl)phenoxy)methyl)pyrrolidin-1-yl)-4-(trifluoromethyl)pyridazin-3(2H)-one]
< 100 nM | Cc1ccc(N2CCN(C(=O)c3cccc(OC[C@@H]4CCCN4c4cn[nH]c(=O)c4C(F)(F)F)c3)CC2)nc1 [Example 446, (S)-5-(2-((3-(4-(5-Methylpyridin-2-yl)piperazine-1-carbonyl)phenoxy)methyl)pyrrolidin-1-yl)-4-(trifluoromethyl)pyridazin-3(2H)-one]
< 100 nM | Cc1cnc(N2CCN(C(=O)c3cccc(OC[C@@H]4CCCN4c4cn[nH]c(=O)c4C(F)(F)F)c3)CC2)nc1 [Example 447, (S)-5-(2-((3-(4-(5-Methylpyrimidin-2-yl)piperazine-1-carbonyl)phenoxy)methyl)pyrrolidin-1-yl)-4-(trifluoromethyl)pyridazin-3(2H)-one]
